Source: patent US8987195B2 (priority 2012, dated 2015)
Like-named read-outs stand apart in the source and are kept apart here.

How the values were obtained:
[1] = system: HCV genotype 1b replicon; experiment: HCV replicon assay, genotype 1b replicon EC50; assay type: cell-based, Hepatitis C virus; settings: Hepatitis C virus, HCV replicon, genotype 1b, read-out: EC50 [gt-1b]
Outline: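 Stable neomycin phosphotransferase-encoding replicon cell lines, kept under G418 selection beforehand, were plated with a compound dilution series without G418 and incubated 24-48 hours. Replicon RNA was then quantified, or luciferase activity read. EC50 was calculated as percent of DMSO control by four-parameter fit.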

[2] = target: HCV NS3/4A protease genotype 1b (Hepatitis C virus genotype 1b, UniProt P26663); experiment: HCV NS3/4A protease time-resolved fluorescence (TRF) assay, Ki against genotype 1b; assay type: biochemical; settings: IC50 [gt-1b], NS3/4A protease TRF assay, genotype 1b enzyme 0.2 nM
Outline: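 First, protease (genotype 1b 0.2 nM, A156T 0.4 nM, genotype 3a 0.025 nM) is preincubated 30 min with inhibitor. Next, 25 nM TRF substrate starts the reaction, run 2.5 h at room temperature. Finally, europium fluorescence is read and Ki calculated from IC50.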

Row | Compound | EC50 [1] [nM] | IC50 [2] [nM] | further results
1 | CCc1nc2ccc(OC)cc2c2c1O[C@]1(CC2)C[C@H]2C(=O)N[C@]3(C(=O)NS(=O)(=O)C4(C)CC4)C[C@H]3/C=C\CCCCC[C@H](NC(=O)c3cc[nH]n3)C(=O)N2C1 [Example 469, (2R,6S,12Z,13aS,14aR,16aS)-5′-ethyl-9′-methoxy-N-[(1-methylcyclopropyl)sulfonyl]-5,16-dioxo-6-[(1H-pyrazol-3-ylcarbonyl)amino]-1,1′,2′,6,7,8,9,10,11,13a,14,15,16,16a-tetradecahydrospiro[cyclopropa[e]pyrrolo[1,2-a][1,4]diazacyclopentadecine-2,3′-pyrano[2,3-c]quinoline]-14a(5H)-carboxamide] | 48.8 | 0.016 | 
2 | CCc1nc2ccc(OCCN3CCOCC3)cc2c2c1O[C@]1(CC2)C[C@H]2C(=O)N[C@]3(C(=O)NS(=O)(=O)C4(C)CC4)C[C@H]3/C=C\CCCCC[C@H](NC(=O)OC(C)(C)C)C(=O)N2C1 [Example 470, tert-butyl {(2R,6S,12Z,13aS,14aR,16aS)-5′-ethyl-14a-{[(1-methylcyclopropyl)sulfonyl]carbamoyl}-9′-[2-(morpholin-4-yl)ethoxy]-5,16-dioxo-1,1′,2′,5,6,7,8,9,10,11,13a,14,14a,15,16,16a-hexadecahydrospiro[cyclopropa[e]pyrrolo[1,2-a][1,4]diazacyclopentadecine-2,3′-pyrano[2,3-c]quinolin]-6-yl}carbamate] | 5.74 | 0.011 | 
3 | CC(C)COC(=O)N[C@H]1CCCCC/C=C\[C@@H]2C[C@@]2(C(=O)NS(=O)(=O)C2(C)CC2)NC(=O)[C@@H]2C[C@]3(CCc4c(c(C(F)(F)F)nc5ccc(OCCN6CCOCC6)cc45)O3)CN2C1=O [Example 471, 2-methylpropyl [(2R,6S,12Z,13aS,14aR,16aS)-14a-{[(1-methylcyclopropyl)sulfonyl]carbamoyl}-9′-[2-(morpholin-4-yl)ethoxy]-5,16-dioxo-5′-(trifluoromethyl)-1,1′,2′,5,6,7,8,9,10,11,13a,14,14a,15,16,16a-hexadecahydrospiro[cyclopropa[e]pyrrolo[1,2-a][1,4]diazacyclopentadecine-2,3′-pyrano[2,3-c]quinolin]-6-yl]carbamate] |  |  | EC50 ([1]; HCl salt): 3.06 nM; IC50 ([2]; HCl salt): 0.021 nM
4 | CC(C)(C)COC(=O)N[C@H]1CCCCC/C=C\[C@@H]2C[C@@]2(C(=O)NS(=O)(=O)C2(C)CC2)NC(=O)[C@@H]2C[C@]3(CCc4c(c(C(F)(F)F)nc5ccc(OCCN6CCOCC6)cc45)O3)CN2C1=O [Example 472, 2,2-dimethylpropyl [(2R,6S,12Z,13aS,14aR,16aS)-14a-{[(1-methylcyclopropyl)sulfonyl]carbamoyl}-9′-[2-(morpholin-4-yl)ethoxy]-5,16-dioxo-5′-(trifluoromethyl)-1,1′,2′,5,6,7,8,9,10,11,13a,14,14a,15,16,16a-hexadecahydrospiro[cyclopropa[e]pyrrolo[1,2-a][1,4]diazacyclopentadecine-2,3′-pyrano[2,3-c]quinolin]-6-yl]carbamate] |  |  | EC50 ([1]; HCl salt): 3.43 nM; IC50 ([2]; HCl salt): 0.02 nM
5 | COCC1(S(=O)(=O)NC(=O)[C@@]23C[C@H]2/C=C\CCCCC[C@H](NC(=O)OCC(C)C)C(=O)N2C[C@@]4(CCc5c(c(C(F)(F)F)nc6ccc(OC)cc56)O4)C[C@H]2C(=O)N3)CC1 [Example 473, 2-methylpropyl [(2R,6S,12Z,13aS,14aR,16aS)-9′-methoxy-14a-({[1-(methoxymethyl)cyclopropyl]sulfonyl}carbamoyl)-5,16-dioxo-5′-(trifluoromethyl)-1,1′,2′,5,6,7,8,9,10,11,13a,14,14a,15,16,16a-hexadecahydrospiro[cyclopropa[e]pyrrolo[1,2-a][1,4]diazacyclopentadecine-2,3′-pyrano[2,3-c]quinolin]-6-yl]carbamate] | 2.27 | 0.031 | 
6 | CC(C)[C@H](C)OC(=O)N[C@H]1CCCCC/C=C\[C@@H]2C[C@@]2(C(=O)NS(=O)(=O)C2(C)CC2)NC(=O)[C@@H]2C[C@]3(CCc4c(c(C(F)(F)F)nc5ccc(OCCN6CCOCC6)cc45)O3)CN2C1=O [Example 474, (2S)-3-methylbutan-2-yl [(2R,6S,12Z,13aS,14aR,16aS)-14a-{[(1-methylcyclopropyl)sulfonyl]carbamoyl}-9′-[2-(morpholin-4-yl)ethoxy]-5,16-dioxo-5′-(trifluoromethyl)-1,1′,2′,5,6,7,8,9,10,11,13a,14,14a,15,16,16a-hexadecahydrospiro[cyclopropa[e]pyrrolo[1,2-a][1,4]diazacyclopentadecine-2,3′-pyrano[2,3-c]quinolin]-6-yl]carbamate] | 1.73 | 0.033 | 
7 | CCCOC(=O)N[C@H]1CCCCC/C=C\[C@@H]2C[C@@]2(C(=O)NS(=O)(=O)C2(C)CC2)NC(=O)[C@@H]2C[C@]3(CCc4c(c(C(F)F)nc5ccc(OC)cc45)O3)CN2C1=O [Example 475, propyl [(2R,6S,12Z,13aS,14aR,16aS)-5′-(difluoromethyl)-9′-methoxy-14a-{[(1-methylcyclopropyl)sulfonyl]carbamoyl}-5,16-dioxo-1,1′,2′,5,6,7,8,9,10,11,13a,14,14a,15,16,16a-hexadecahydrospiro[cyclopropa[e]pyrrolo[1,2-a][1,4]diazacyclopentadecine-2,3′-pyrano[2,3-c]quinolin]-6-yl]carbamate] |  |  | EC50 ([1]; K+ salt): 2.39 nM; IC50 ([2]; K+ salt): 0.005 nM
8 | COCC1(S(=O)(=O)NC(=O)[C@@]23C[C@H]2/C=C\CCCCC[C@H](NC(=O)OC(C)(C)C)C(=O)N2C[C@@]4(CCc5c(c(C(F)F)nc6ccc(OC)cc56)O4)C[C@H]2C(=O)N3)CC1 [Example 476, tert-butyl [(2R,6S,12Z,13aS,14aR,16aS)-5′-(difluoromethyl)-9′-methoxy-14a-({[1-(methoxymethyl)cyclopropyl]sulfonyl}carbamoyl)-5,16-dioxo-1,1′,2′,5,6,7,8,9,10,11,13a,14,14a,15,16,16a-hexadecahydrospiro[cyclopropa[e]pyrrolo[1,2-a][1,4]diazacyclopentadecine-2,3′-pyrano[2,3-c]quinolin]-6-yl]carbamate] | 4.35 | 0.012 | 
9 | CC[C@H](C)OC(=O)N[C@H]1CCCCC/C=C\[C@@H]2C[C@@]2(C(=O)NS(=O)(=O)C2(COC)CC2)NC(=O)[C@@H]2C[C@]3(CCc4c(c(C(F)F)nc5ccc(OC)cc45)O3)CN2C1=O [Example 477, (2S)-butan-2-yl [(2R,6S,12Z,13aS,14aR,16aS)-5′-(difluoromethyl)-9′-methoxy-14a-({[1-(methoxymethyl)cyclopropyl]sulfonyl}carbamoyl)-5,16-dioxo-1,1′,2′,5,6,7,8,9,10,11,13a,14,14a,15,16,16a-hexadecahydrospiro[cyclopropa[e]pyrrolo[1,2-a][1,4]diazacyclopentadecine-2,3′-pyrano[2,3-c]quinolin]-6-yl]carbamate] |  |  | EC50 ([1]; K+ salt): 5.05 nM; IC50 ([2]; K+ salt): 0.019 nM
10 | COCC1(S(=O)(=O)NC(=O)[C@@]23C[C@H]2/C=C\CCCCC[C@H](NC(=O)O[C@@H](C)C(C)C)C(=O)N2C[C@@]4(CCc5c(c(C(F)F)nc6ccc(OC)cc56)O4)C[C@H]2C(=O)N3)CC1 [Example 478, (2S)-3-methylbutan-2-yl [(2R,6S,12Z,13aS,14aR,16aS)-5′-(difluoromethyl)-9′-methoxy-14a-({[1-(methoxymethyl)cyclopropyl]sulfonyl}carbamoyl)-5,16-dioxo-1,1′,2′,5,6,7,8,9,10,11,13a,14,14a,15,16,16a-hexadecahydrospiro[cyclopropa[e]pyrrolo[1,2-a][1,4]diazacyclopentadecine-2,3′-pyrano[2,3-c]quinolin]-6-yl]carbamate] | 5.8 | 0.016 | 
11 | CCc1nc2ccc(OCCCOC)cc2c2c1O[C@]1(CC2)C[C@H]2C(=O)N[C@]3(C(=O)NS(=O)(=O)C4(C)CC4)C[C@H]3/C=C\CCCCC[C@H](NC(=O)OC(C)(C)C)C(=O)N2C1 [Example 479, tert-butyl [(2R,6S,12Z,13aS,14aR,16aS)-5′-ethyl-9′-(3-methoxypropoxy)-14a-{[(1-methylcyclopropyl)sulfonyl]carbamoyl}-5,16-dioxo-1,1′,2′,5,6,7,8,9,10,11,13a,14,14a,15,16,16a-hexadecahydrospiro[cyclopropa[e]pyrrolo[1,2-a][1,4]diazacyclopentadecine-2,3′-pyrano[2,3-c]quinolin]-6-yl]carbamate] | 1.05 | 0.005 | 
12 | CCc1nc2ccc(OC)cc2c2c1O[C@]1(CC2)C[C@H]2C(=O)N[C@]3(C(=O)NS(=O)(=O)C4(C)CC4)C[C@H]3/C=C\CCCCC[C@H](NC(=O)c3sccc3C)C(=O)N2C1 [Example 480, (2R,6S,12Z,13aS,14aR,16aS)-5′-ethyl-9′-methoxy-N-[(1-methylcyclopropyl)sulfonyl]-6-{[(3-methylthiophen-2-yl)carbonyl]amino}-5,16-dioxo-1,1′,2′,6,7,8,9,10,11,13a,14,15,16,16a-tetradecahydrospiro[cyclopropa[e]pyrrolo[1,2-a][1,4]diazacyclopentadecine-2,3′-pyrano[2,3-c]quinoline]-14a(5H)-carboxamide] | 0.266 | 0.006 | 
